Entries after “also recorded” stand apart in the source; their conditions may differ.
Key:
Type in all cases: cell-based
CDK4/6 [1] = test: Western blot of CDK4 and CDK6 in MCF7 breast cancer cells treated with degraders (Example 12, FIG. 10 A); conditions: 1 or 5 μM, 24 h
Description: (§1) Breast cancer cell lines (MCF7, T47D, and ZR-75-1) and melanoma cell lines (A375, SK-MEL-2, SK-MEL-30, and WM1382) were cultured in the presence of DMEM or RPMI supplemented with 10% FBS in the presence of penicillin and streptomycin.
(§2) Protein concentrations were determined by BCA from cell lysates and equal amounts of protein are loaded to a Bis-Tris 4-12% gel. Gels were run at 80 V for 4 h using 1× running buffer (25 mM Tris, pH 8.3, […] glycine, 0.1% SDS). Proteins were transferred to a nitrocellulose membrane for 2 h at 100 V using transfer buffer (25 mM Tris, pH 8.3, […] glycine, 20% methanol). Ponceau S staining (0.1% Ponceau S, 1% acetic acid) was used to confirm transfer of proteins to the membrane followed by blocking of the membrane for 30 min at room temperature using blocking buffer (5% dry nonfat milk, 0.1% Tween, 0.02% sodium azide in TBS). The blocked membrane is incubated with primary antibodies (1:1000 dilution) in blocking buffer at 4° C. overnight. When primary phosphor-antibodies were used, then the membrane is incubated with 5% BSA instead of milk. The membrane was washed three times, 10 min each, with wash buffer (0.1% Tween in TBS) followed by incubation with secondary HRP conjugated antibody (1:5000 dilution) in 2.5% dry nonfat milk, 0.1% Tween in TBS for 1 h at room temperature. The membrane was washed three times, 10 min each, with wash buffer (0.1% Tween in TBS). Membranes are incubated with ECL for 1 min and proteins are detected after exposure to a blue autoradiographic film.
(§3) MCF7 breast cancer cells were treated with 1 or 5 μM XY019-095, XY019-098, XY019-0100, XY019-105A, XY019-105B, XY019-106, or XY019-108 for 24 h, then lysed and immunoblotted with antibodies to CDK4, CDK6, and actin (FIG. 10, panel A). […] T47D breast cancer cells were treated with 0.1, 0.3, 1, 3, 10, or 30 μM XY019-106 for 24 h, then lysed and immunoblotted with antibodies to phospho-Rb (pRB), CDK4, and actin (FIG. 10, panel B).

CDK4/6 [2] = target: T1, CDK4/6 (Homo sapiens, UniProt P11802); test: Western blot of CDK4/6 and phospho-Rb in T47D breast cancer cells treated with degraders (Example 12, FIGS. 10 B, 17, 19); conditions: 24 h
T1 construct: endogenous in cells; host or cells: MCF7, T47D, ZR-75-1 (breast cancer); A375, SK-MEL-2, SK-MEL-30, WM1382 (melanoma)
T1 sequence (P11802 2-303): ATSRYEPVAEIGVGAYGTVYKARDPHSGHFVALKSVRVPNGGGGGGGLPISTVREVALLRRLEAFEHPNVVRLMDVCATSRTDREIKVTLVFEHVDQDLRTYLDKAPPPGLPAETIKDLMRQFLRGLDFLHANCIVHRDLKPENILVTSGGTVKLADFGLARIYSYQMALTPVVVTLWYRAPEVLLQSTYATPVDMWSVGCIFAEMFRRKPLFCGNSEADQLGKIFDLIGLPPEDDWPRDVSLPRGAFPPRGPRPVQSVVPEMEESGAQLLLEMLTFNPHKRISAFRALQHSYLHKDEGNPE
Description: as §1, §2, §3
(§4) T47D breast cancer cells (FIG. 17) were treated with 0.3 or 1 μM XY028-140, YX039-48, YX039-123, YX039-56, YX039-124, YX039-65, YX039-147 or YX039-74 for 24 h, then lysed and immunoblotted with antibodies to phospho-Rb (pRb), total Rb, PLK1, cyclin A, CDK4, CDK6, and actin.
(§5) T47D breast cancer cells (FIG. 19) were treated with 0.3 or 1 μM XY028-133, YX044-18, YX044-22, XY028-140, YX044-19 or YX044-38 for 24 h, then lysed and immunoblotted with antibodies to phospho-Rb (pRb), total Rb, PLK1, cyclin A, CDK4, CDK6, and actin.

CDK4/6 [3] = test: as above; conditions: concentrations as high as 30 μM, 24 h
Description: as §1, §2, §3, §4, §5

CDK4/6 [4] = test: Western blot of CDK4, CDK6 and phospho-Rb in SK-MEL-2 or A375 melanoma cells treated with degraders (Example 12, FIG. 11); conditions: SK-MEL-2 or A375 cells; 1 or 3 μM; 24 h
Description: as §1
as §2, with “The membrane was washed three times, 10 min each, with wash buffer (0.1% Tween in TBS) followed by incubation with secondary HRP conjugated antibody (1:5000 dilution) in 2.5% dry nonfat milk, 0.1% Tween in TBS for 1 h at room temperature. The membrane was washed three times, 10 min each, with wash buffer (0.1% Tween in TBS).” left out, “film. […]” for “film.”

CDK4/6 [5] = test: Western blot of CDK4, CDK6 and phospho-Rb in A375 melanoma cells treated with degraders (Example 12, FIGS. 12, 13, 16, 18); conditions: 24 h
Description: as §1, §2
A375 melanoma cells (FIG. 13) were treated with 1 or 3 μM Ribociclib (RB), YX030-126, YX030-108, YX030-107, YX030-086, YX030-085 or XY028-133 for 24 h, then lysed and immunoblotted with antibodies to CDK4, CDK6, cyclin A, PLK1, phospho-Rb (pRb), and actin.
A375 melanoma cells (FIG. 16, panel A) were treated with 0.3 or 1 μM XY028-140, YX039-65, YX039-48, YX039-123, YX039-56, YX039-124 or YX039-147 for 24 h. A375 melanoma cells were treated with 1 or 3 μM XY028-140, YX039-56, YX039-65 or XY028-133 (FIG. 16, panel B). Cells were lysed and immunoblotted with antibodies to phospho-Rb (pRb), total Rb, PLK1, cyclin A, CDK4, CDK6, and actin.
A375 melanoma cells (FIG. 18) were treated with 1 or 3 μM XY028-133, YX044-18, YX044-22, XY028-140, YX044-19 or YX044-38 for 24 h, then lysed and immunoblotted with antibodies to phospho-Rb (pRb), total Rb, PLK1, cyclin A, CDK4, CDK6, and actin.

CDK4/6 [6] = test: Characterization of CDK4/6 degraders/disruptors in various breast cancer and melanoma cells (summary, Examples 12 and 13)
Description: Specific exemplary abemaciclib-, ribociclib-, and palbociclib-based CDK4/6 degraders/disruptors were characterized in various different breast cancer and melanoma cells (Examples 12 and 13, FIGS. 10-23). […] This efficacy in suppressing CDK4/6 expression and CDK4/6 activity correlated with efficacy in inhibiting cancer cell proliferation.
as §2

[7] = tested on: V5-tagged CDK4 or V5-tagged CDK6; test: Western blot of V5-tagged CDK4 or CDK6 ectopically expressed in 293H cells (Example 8); conditions: 1, 3 or 10 μM, 24 h
Description: Protein concentrations were determined by BCA from cell lysates and equal amounts of protein are loaded to a Bis-Tris 4-12% gel. Gels were run at 80 V for 4 h using 1× running buffer (25 mM Tris, pH 8.3, 1.92 M glycine, 0.1% SDS). Proteins were transferred to a nitrocellulose membrane for 2 h at 100 V using transfer buffer (25 mM Tris, pH 8.3, 1.92 M glycine, 20% methanol). Ponceau S staining (0.1% Ponceau S, 1% acetic acid) was used to confirm transfer of proteins to the membrane followed by blocking of the membrane for 30 min at room temperature using blocking buffer (5% dry nonfat milk, 0.1% Tween, 0.02% sodium azide in TBS). The blocked membrane is incubated with primary antibodies (1:1000 dilution) in blocking buffer at 4° C. overnight. When primary phosphor-antibodies were used, then the membrane is incubated with 5% BSA instead of milk. The membrane was washed three times, 10 min each, with wash buffer (0.1% Tween in TBS) followed by incubation with secondary HRP conjugated antibody (1:5000 dilution) in 2.5% dry nonfat milk, 0.1% Tween in TBS for 1 h at room temperature. The membrane was washed three times, 10 min each, with wash buffer (0.1% Tween in TBS). Membranes are incubated with ECL for 1 min and proteins are detected after exposure to a blue autoradiographic film.

A375 melanoma cells [8] = test: Bright field imaging of A375 melanoma cell proliferation (Example 13, FIG. 20); conditions: 1 or 2 μM, 7 days
A375 melanoma cells [9] = test: Crystal violet staining (clonogenic assay) of A375 melanoma cells (Example 13, FIG. 21); conditions: 0.03-3 μM, 11 days
Description: Cells were cultured for 7-11 days in the presence of different compounds. Media with compound was replenished every two days. At the end of the experiment, media was aspirated and viable cells were stained with 0.5% crystal violet dye.

Structure (SMILES): CC(=O)c1c(C)c2cnc(Nc3ccc(N4CCN(C(=O)CCCCCCC(=O)N[C@H](C(=O)N5C[C@H](O)C[C@H]5C(=O)NCc5ccc(-c6scnc6C)cc5)C(C)(C)C)CC4)cn3)nc2n(C2CCCC2)c1=O [XY019-106, (2S,4R)-1-((S)-2-(8-(4-(6-((6-acetyl-8-cyclopentyl-5-methyl-7-oxo-7,8-dihydropyrido[2,3-d]pyrimidin-2-yl)amino)pyridin-3-yl)piperazin-1-yl)-8-oxooctanamido)-3,3-dimethylbutanoyl)-4-hydroxy-N-(4-(4-methylthiazol-5-yl)benzyl)pyrrolidine-2-carboxamide]
- suppression of CDK4/6 expression (CDK4/6 [1]): especially effective in suppressing CDK4/6 expression even at 1 μM
- suppression of CDK4 expression and inhibition of CDK4 activity (Rb phosphorylation) (CDK4/6 [2]; 0.1-30 μM): both suppresses CDK4 expression and inhibit CDK4 activity
- concentrations with significant effects on CDK4 expression and Rb phosphorylation (CDK4/6 [2]): ≥ 0.3 µM
- inhibition of Rb phosphorylation at high concentrations (CDK4/6 [3]): inhibited Rb phosphorylation even when administered at high concentrations
- efficacy in inhibiting both CDK4/6 expression and CDK4/6 activity (decreased Rb phosphorylation) (CDK4/6 [4]): efficacy of CDK4/6 degraders/disruptors, particularly XY019-106 and XY028-003
- efficacy in inhibiting both CDK4/6 expression and CDK4/6 activity (decreased Rb phosphorylation) (CDK4/6 [5]; 1 or 3 μM): efficacy of CDK4/6 degraders, particularly XY028-133, XY028-140, XY019-106 and XY028-003
- suppression of both CDK4/6 expression and CDK4/6 activity (summary) (CDK4/6 [6]): especially effective in suppressing both CDK4/6 expression and CDK4/6 activity

Structure (SMILES): CN(C)C(=O)c1cc2cnc(Nc3ccc(N4CCNCC4)cn3)nc2n1C1CCCC1 [ribociclib]
- expression of V5-tagged CDK4 and CDK6 [7]: upregulated the expression of V5-tagged CDK4 and CDK6

Structure (SMILES): CC(=O)c1c(C)c2cnc(Nc3ccc(N4CCN(C(=O)CCCCCC(=O)N[C@H](C(=O)N5C[C@H](O)C[C@H]5C(=O)NCc5ccc(-c6scnc6C)cc5)C(C)(C)C)CC4)cn3)nc2n(C2CCCC2)c1=O [XY028-133, (2S,4R)-1-((S)-2-(7-(4-(6-((6-acetyl-8-cyclopentyl-5-methyl-7-oxo-7,8-dihydropyrido[2,3-d]pyrimidin-2-yl)amino)pyridin-3-yl)piperazin-1-yl)-7-oxoheptanamido)-3,3-dimethylbutanoyl)-4-hydroxy-N-(4-(4-methylthiazol-5-yl)benzyl)pyrrolidine-2-carboxamide]
- efficacy in inhibiting both CDK4/6 expression and CDK4/6 activity (decreased Rb phosphorylation) (CDK4/6 [5]; 0.3 or 1 μM (FIG. 16 A), 1 or 3 μM (FIG. 16 B)): efficacy of CDK4/6 degraders, particularly XY028-133
- efficacy in inhibiting both CDK4/6 expression and CDK4/6 activity (decreased Rb phosphorylation) (CDK4/6 [5]; 1 or 3 μM): efficacy of CDK4/6 degraders, particularly XY028-133, XY028-140, XY019-106 and XY028-003; also recorded: efficacy of CDK4/6 degraders, particularly XY028-133 and YX044-18
- inhibition of cancer cell proliferation compared with palbociclib (bright field imaging) (A375 melanoma cells [8]): more effective in inhibiting cancer cell proliferation than palbociclib at the same concentration
- inhibition of cancer cell proliferation compared with palbociclib (crystal violet staining) (A375 melanoma cells [9]): more effective in inhibiting cancer cell proliferation than palbociclib at 1 and 3 μM
- suppression of both CDK4/6 expression and CDK4/6 activity (summary) (CDK4/6 [6]): especially effective in suppressing both CDK4/6 expression and CDK4/6 activity

Source: US11541051B2, “Compositions and methods for treating CDK4/6-mediated cancer” (Icahn School of Medicine at Mount Sinai, priority 2016, dated 2023)
